Assay results: US20250312321A1, “TRANSIENT SIROLIMUS WITH FASL MICROGELS” (iTOLERANCE, Inc., priority 2022, published 2025)

Set-up: species or system non-human primates (Cyno)
Conditions: cynomolgus monkey, in vivo
Protocol: Biotinylated PEG microgels (150 μm diameter) were synthesized by microfluidic cross-linking and functionalized with SA-FasL as previously described (Headon, D M, et al., Nat. Mater. 17:732-739 (2018)). Four diabetic non-human primates (NHP) (FIG. 1B; Tables 1 and 2) underwent transplantation of allogeneic islets (14,800 to 18,700 islet equivalents (IEQ)/kg) mixed with SA-FasL-presenting microgels (150,000 to 200,000 microgels delivering 0.2 mg of SA-FasL) on the omental surface. […]
At selected time points, intravenous glucose tolerance tests (IVGTT) were performed to assess glucose disposal kinetics and insulin and C-peptide levels. […] Consistent with these metrics of graft function, background levels of insulin and C-peptide were measured in the serum of SA-FasL microgel NHPs after STZ administration but before islet transplant and equivalently low levels were evident post-graft removal (insulin: pre-STZ vs. post-STZ, P<0.0001; post-STZ vs. post-graft removal (PGR), P=0.9998; C-peptide: pre-STZ vs. post-STZ, P=0.0060; post-STZ vs. post-graft removal, P=0.4032) (FIG. 2D). […] SA-FasL protein was detected in the serum of all NHPs as early as 1-day after transplantation ranging from 4-56 ng/mL and decreasing to background levels by days 7-14.

Time after discontinuation at which sirolimus levels became undetectable: 2 weeks
Structure (SMILES): CO[C@H]1C[C@@H]2CC[C@@H](C)[C@@](O)(O2)C(=O)C(=O)N2CCCC[C@H]2C(=O)O[C@H]([C@H](C)C[C@@H]2CC[C@@H](O)[C@H](OC)C2)CC(=O)[C@H](C)/C=C(\C)[C@@H](O)[C@@H](OC)C(=O)[C@H](C)C[C@H](C)/C=C/C=C/C=C/1C [Sirolimus]
